Active and inactive are the calls of the source. The calls are words filed in the database; no cut-off is given here.
Assays:
MDA-MB-231 [1] = experiment: Induction of ER stress in human MDA-MB-231 cells assessed as increase in DDIT3 mRNA expression at 2XEC50 measured after 6 hrs by qPCR method; type: functional, cell-based
MDA-MB-231 [2] = experiment: Induction of ER stress in human MDA-MB-231 cells assessed as increase in HSPA5A mRNA expression at 2XEC50 measured after 6 hrs by qPCR method; type: functional, cell-based
[3] = target: T1, M-phase inducer phosphatase 2 (Homo sapiens) (UniProt P30305); experiment: Inhibition of CDC25B (unknown origin) at 1 uM
T1 sequence (whole entry): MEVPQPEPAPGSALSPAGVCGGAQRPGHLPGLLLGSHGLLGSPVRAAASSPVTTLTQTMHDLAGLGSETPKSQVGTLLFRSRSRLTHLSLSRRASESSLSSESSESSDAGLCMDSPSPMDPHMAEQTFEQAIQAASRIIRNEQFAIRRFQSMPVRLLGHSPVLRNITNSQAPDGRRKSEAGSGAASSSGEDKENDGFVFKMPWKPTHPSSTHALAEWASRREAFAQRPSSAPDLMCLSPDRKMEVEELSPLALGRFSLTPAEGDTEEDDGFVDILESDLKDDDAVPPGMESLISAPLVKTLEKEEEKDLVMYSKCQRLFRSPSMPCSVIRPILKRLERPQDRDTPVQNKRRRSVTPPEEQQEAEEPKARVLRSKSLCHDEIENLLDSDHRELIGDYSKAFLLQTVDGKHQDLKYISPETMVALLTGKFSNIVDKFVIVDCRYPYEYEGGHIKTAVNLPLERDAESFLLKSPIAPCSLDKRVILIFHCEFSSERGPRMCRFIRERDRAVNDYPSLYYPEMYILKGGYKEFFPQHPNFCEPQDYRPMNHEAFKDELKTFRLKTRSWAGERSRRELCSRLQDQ

[4] = target: Dual specificity protein phosphatase 3 (Homo sapiens) (UniProt P51452); experiment: Inhibition of DUSP3 (unknown origin) at 1 uM
Sequence of Dual specificity protein phosphatase 3 (Homo sapiens) (P51452 whole entry, looked up): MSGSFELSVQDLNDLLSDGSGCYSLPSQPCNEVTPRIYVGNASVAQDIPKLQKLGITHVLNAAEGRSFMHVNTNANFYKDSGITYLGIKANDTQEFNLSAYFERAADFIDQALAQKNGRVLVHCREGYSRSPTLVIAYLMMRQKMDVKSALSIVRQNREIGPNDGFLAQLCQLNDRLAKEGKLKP

MDA-MB-231 [5] = experiment: Induction of ER stress in human MDA-MB-231 cells assessed as increase in sXbp1 mRNA expression at 2XEC50 measured after 6 hrs by qPCR method; type: functional, cell-based
[6] = target: T2, Tyrosine-protein phosphatase non-receptor type 1 (Homo sapiens) (UniProt P18031); experiment: Inhibition of PTP1B (unknown origin) at 1 uM
T2 sequence (whole entry): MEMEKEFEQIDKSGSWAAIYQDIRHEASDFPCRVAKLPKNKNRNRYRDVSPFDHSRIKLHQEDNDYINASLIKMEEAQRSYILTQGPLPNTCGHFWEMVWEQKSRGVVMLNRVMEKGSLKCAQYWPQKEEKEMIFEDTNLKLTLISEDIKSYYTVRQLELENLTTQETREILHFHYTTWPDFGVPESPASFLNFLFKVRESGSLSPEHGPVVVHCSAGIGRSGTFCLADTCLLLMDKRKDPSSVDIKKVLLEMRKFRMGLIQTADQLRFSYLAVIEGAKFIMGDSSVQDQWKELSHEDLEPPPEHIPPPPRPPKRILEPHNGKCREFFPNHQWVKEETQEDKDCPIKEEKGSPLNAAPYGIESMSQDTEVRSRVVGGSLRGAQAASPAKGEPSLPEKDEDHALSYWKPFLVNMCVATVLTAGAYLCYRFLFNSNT

MDA-MB-231 [7] = experiment: Cytotoxicity against JMS-053-pretreated human MDA-MB-231 cells at 20 to 60 uM measured after 72 hrs by CellTiter-Glo assay; type: functional, cell-based; conditions: dose 20-60 µM
MDA-MB-231 [8] = experiment: cells; conditions: Homo sapiens, MDA-MB-231, 72 h
MDA-MB-231 [9] = experiment: Induction of ER stress in human MDA-MB-231 cells assessed as increase in HSPA5A mRNA expression at 2 mM measured after 2 hrs by qPCR method; type: functional, cell-based
MDA-MB-231 [10] = experiment: Induction of ER stress in human MDA-MB-231 cells assessed as increase in DDIT3 mRNA expression at 2 mM measured after 2 hrs by qPCR method; type: functional, cell-based
MDA-MB-231 [11] = experiment: Induction of ER stress in human MDA-MB-231 cells assessed as increase in sXbp1 mRNA expression at 2 mM measured after 2 hrs by qPCR method; type: functional, cell-based

With N=C1C(=O)NC(=O)c2cc(-c3ccc(OCCCCNC(=O)CC45CC6CC(CC(C6)C4)C5)cc3)sc21 the Activity (MDA-MB-231 [1]) was “Active”, the Activity (MDA-MB-231 [2]) was “Active” and the inhibition [3] was under 11%. For the same molecule, the inhibition [4] was under 11%, the Activity (MDA-MB-231 [5]) was “Active” and the inhibition [6] was under 11%.

With O=C(CC12CC3CC(CC(C3)C1)C2)NCCCCO the Activity (MDA-MB-231 [7]) was “inactive” and the EC50 (MDA-MB-231 [8]) was over 50 µM.

For OC(CS)C(O)CS (stereo unspecified), the Activity (MDA-MB-231 [9]) was “Active”, the Activity (MDA-MB-231 [10]) was “Active” and the Activity (MDA-MB-231 [11]) was “Active”.

Source: ChEMBL document CHEMBL4819145, “Synthesis and evaluation of bifunctional PTP4A3 phosphatase inhibitors activating the ER stress pathway” (Bioorg Med Chem Lett, 2021)
